# According to patent US20020110815A1, “Novel genes, compositions and methods for the identification, assessment, prevention, and therapy of human cancers” (priority 2000, published 2002):
# What was measured:
# SN12C = settings: renal, TAXOL sensitive cell line; cited from earlier work
# OVCAR-3 = settings: OVCAR-3, ovarian, TAXOL sensitive cell line; cited from earlier work
# [1] = system: TAXOL resistant cancer cell lines; test: TAXOL growth inhibition (GI50), mean of TAXOL resistant cell lines; format: cell-based, human; settings: mean of the nine TAXOL resistant cell lines of Table B
# Protocol: (§1) One group of nine cell lines was determined to be sensitive to TAXOL (Table C), the other group of nine cell lines was determined to be resistant to TAXOL (Table B). Sensitivity to TAXOL was based on known GI50 values for these cells, which for this study was defined as the concentration of TAXOL required to inhibit growth of the cell line by 50%. More precisely, the quantity used in the calculation is the potency measure −log {GI50}. Pooled RNA from TAXOL sensitive cancer cell lines was used as tester against driver RNA pooled from TAXOL resistant cancer cell lines. The results of this subtractive library are shown in SEQ ID NOS: 1-127, SEQ ID NOS: 398-517 and SEQ ID NOS: 746-841. Pooled RNA from TAXOL resistant cancer cell lines was used as tester against driver RNA pooled from TAXOL sensitive cancer cell lines. The results of this subtractive library are shown in SEQ ID NOS: 128-397, SEQ ID NOS: 518-745 and SEQ ID NOS: 842-1046.
# ACHN = settings: renal, TAXOL resistant cell line; cited from earlier work
# SK-MEL-2 = settings: SK-MEL-2, melanoma, TAXOL sensitive cell line; cited from earlier work
# NCI-H460 = settings: NCI-H460, non-small cell lung carcinoma, TAXOL sensitive cell line; cited from earlier work
# T-47D = settings: breast, TAXOL resistant cell line; cited from earlier work
# HOP-92 = settings: HOP-92, non-small cell lung carcinoma, TAXOL resistant cell line; cited from earlier work
# OVCAR-4 = settings: OVCAR-4, ovarian, TAXOL resistant cell line; cited from earlier work
# SK-MEL-28 = settings: SK-MEL-28, melanoma, TAXOL resistant cell line; cited from earlier work
# [2] = system: TAXOL sensitive cancer cell lines; test: TAXOL growth inhibition (GI50), mean of TAXOL sensitive cell lines; format: cell-based; settings: Homo sapiens; mean of the nine TAXOL sensitive cell lines of Table C; read-out: Log GI 50 for TAXOL (Mean) (converted)
# Protocol: as §1
# MCF-7 = settings: MCF-7, breast, TAXOL sensitive cell line; cited from earlier work
# HCT-15 = settings: HCT-15, colon, TAXOL resistant cell line; cited from earlier work
# MALME-3M = settings: melanoma, TAXOL resistant cell line; cited from earlier work
# EKVX = settings: non-small cell lung carcinoma, TAXOL resistant cell line; cited from earlier work
# MDA-MB-435 = settings: MDA-MB-435, breast, TAXOL sensitive cell line; cited from earlier work
# HT-29 = settings: HT-29, colon, TAXOL sensitive cell line; cited from earlier work
# MCF-7/AdrRes = settings: breast, TAXOL resistant cell line; cited from earlier work
# NCI-H522 = settings: NCI-H522, non-small cell lung carcinoma, TAXOL sensitive cell line; cited from earlier work
# SK-MEL-5 = settings: SK-MEL-5, melanoma, TAXOL sensitive cell line; cited from earlier work
# tumor = settings: animal models; cited from earlier work
smiles,measurement,setting,value
CC(=O)O[C@H]1C(=O)[C@@]2(C)[C@H]([C@H](OC(=O)c3ccccc3)[C@]3(O)C[C@H](OC(=O)[C@H](O)[C@@H](NC(=O)c4ccccc4)c4ccccc4)C(C)=C1C3(C)C)[C@]1(OC(C)=O)CO[C@@H]1C[C@@H]2O [TAXOL],Log GI 50 for TAXOL,SN12C,−8.5
same,Log GI 50 for TAXOL,OVCAR-3,−8.5
same,Log GI 50 for TAXOL (Mean),[1],−6.5
same,Log GI 50 for TAXOL,ACHN,−5.8
same,Log GI 50 for TAXOL,SK-MEL-2,−8.3
same,Log GI 50 for TAXOL,NCI-H460,−8.5
same,Log GI 50 for TAXOL,T-47D,−6.9
same,Log GI 50 for TAXOL,HOP-92,−7.2
same,Log GI 50 for TAXOL,OVCAR-4,−6.3
same,Log GI 50 for TAXOL,SK-MEL-28,−7.1
same,GI50,[2],3.16 nM
same,Log GI 50 for TAXOL,MCF-7,−8.5
same,Log GI 50 for TAXOL,HCT-15,−6.7
same,Log GI 50 for TAXOL,MALME-3M,−6.8
same,Log GI 50 for TAXOL,EKVX,−6.6
same,Log GI 50 for TAXOL,MDA-MB-435,−8.6
same,Log GI 50 for TAXOL,HT-29,−8.6
same,Log GI 50 for TAXOL,MCF-7/AdrRes,−5.5
same,Log GI 50 for TAXOL,NCI-H522,−8.5
same,Log GI 50 for TAXOL,SK-MEL-5,−8.4
"CC(=O)O[C@@]12CO[C@@H]1C[C@H](O)[C@@]1(C)C(=O)[C@H](O)C3=C(C)[C@@H](OC(=O)[C@H](O)[C@@H](NC(=O)OC(C)(C)C)c4ccccc4)C[C@@](O)([C@@H](OC(=O)c4ccccc4)[C@H]21)C3(C)C [Taxotere, docetaxel]",anti-tumor activity,tumor,good anti-tumor activity
